Source: ChEMBL document CHEMBL5465560, “Selectivity Literature for EUbOPEN Chemogenomic Library” (2024)

What was measured:
[1] = target: Ephrin type-A receptor 5 (Homo sapiens) (UniProt P54756); experiment: Selectivity interaction (KinomeScan (DiscoverX)) EUB0000655a EPHA5; details: at 10 µM
[2] = target: Tyrosine-protein kinase FRK (Homo sapiens) (UniProt P42685); experiment: Selectivity interaction (KinomeScan (DiscoverX)) EUB0001079a FRK; details: at 1 µM
[3] = target: T1, Mitogen-activated protein kinase 15 (Homo sapiens) (UniProt Q8TD08); experiment: Selectivity interaction (KinomeScan (DiscoverX)) EUB0000695a MAPK15; details: at 100 nM
T1 sequence (whole entry): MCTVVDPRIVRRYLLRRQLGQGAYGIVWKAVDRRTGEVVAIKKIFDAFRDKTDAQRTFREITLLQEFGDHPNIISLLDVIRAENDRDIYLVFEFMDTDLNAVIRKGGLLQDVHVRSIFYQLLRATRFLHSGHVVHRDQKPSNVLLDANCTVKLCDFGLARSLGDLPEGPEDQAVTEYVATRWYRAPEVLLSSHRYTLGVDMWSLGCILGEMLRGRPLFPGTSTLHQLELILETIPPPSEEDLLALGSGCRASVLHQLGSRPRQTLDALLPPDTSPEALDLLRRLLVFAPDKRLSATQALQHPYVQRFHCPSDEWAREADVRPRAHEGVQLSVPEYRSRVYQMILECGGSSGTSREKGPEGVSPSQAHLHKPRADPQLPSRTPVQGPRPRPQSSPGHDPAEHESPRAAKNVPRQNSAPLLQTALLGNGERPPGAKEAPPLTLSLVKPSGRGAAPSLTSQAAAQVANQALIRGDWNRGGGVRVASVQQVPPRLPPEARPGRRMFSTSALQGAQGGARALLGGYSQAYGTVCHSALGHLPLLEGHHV

[4] = target: T2, Non-receptor tyrosine-protein kinase TNK1 (Homo sapiens) (UniProt Q13470); experiment: Selectivity interaction (KinomeScan (DiscoverX)) EUB0000695a TNK1; details: at 100 nM
T2 sequence (whole entry): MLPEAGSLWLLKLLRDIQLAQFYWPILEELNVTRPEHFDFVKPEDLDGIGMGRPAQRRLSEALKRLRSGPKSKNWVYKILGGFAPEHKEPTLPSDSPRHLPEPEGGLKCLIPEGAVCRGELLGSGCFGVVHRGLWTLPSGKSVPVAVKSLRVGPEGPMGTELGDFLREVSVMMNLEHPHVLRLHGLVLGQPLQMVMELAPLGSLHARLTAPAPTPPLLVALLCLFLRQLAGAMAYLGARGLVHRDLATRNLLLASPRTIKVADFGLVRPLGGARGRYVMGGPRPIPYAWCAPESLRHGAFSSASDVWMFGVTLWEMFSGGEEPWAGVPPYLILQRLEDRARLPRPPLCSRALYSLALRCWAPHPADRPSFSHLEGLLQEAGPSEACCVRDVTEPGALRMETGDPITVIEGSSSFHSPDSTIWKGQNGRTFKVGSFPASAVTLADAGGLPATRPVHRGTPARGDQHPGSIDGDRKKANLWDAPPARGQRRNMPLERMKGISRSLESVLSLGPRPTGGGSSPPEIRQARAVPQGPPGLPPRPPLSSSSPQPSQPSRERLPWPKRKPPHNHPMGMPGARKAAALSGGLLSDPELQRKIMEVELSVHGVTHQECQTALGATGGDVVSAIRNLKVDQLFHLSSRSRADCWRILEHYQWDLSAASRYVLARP

[5] = target: T3, Cyclin-G-associated kinase (Homo sapiens) (UniProt O14976); experiment: Selectivity interaction (Ambit KINOMEscan and KiNATiv profiling in Jurkat cells) EUB0000090b GAK; format: cell-based; details: at 1 µM
T3 sequence (whole entry): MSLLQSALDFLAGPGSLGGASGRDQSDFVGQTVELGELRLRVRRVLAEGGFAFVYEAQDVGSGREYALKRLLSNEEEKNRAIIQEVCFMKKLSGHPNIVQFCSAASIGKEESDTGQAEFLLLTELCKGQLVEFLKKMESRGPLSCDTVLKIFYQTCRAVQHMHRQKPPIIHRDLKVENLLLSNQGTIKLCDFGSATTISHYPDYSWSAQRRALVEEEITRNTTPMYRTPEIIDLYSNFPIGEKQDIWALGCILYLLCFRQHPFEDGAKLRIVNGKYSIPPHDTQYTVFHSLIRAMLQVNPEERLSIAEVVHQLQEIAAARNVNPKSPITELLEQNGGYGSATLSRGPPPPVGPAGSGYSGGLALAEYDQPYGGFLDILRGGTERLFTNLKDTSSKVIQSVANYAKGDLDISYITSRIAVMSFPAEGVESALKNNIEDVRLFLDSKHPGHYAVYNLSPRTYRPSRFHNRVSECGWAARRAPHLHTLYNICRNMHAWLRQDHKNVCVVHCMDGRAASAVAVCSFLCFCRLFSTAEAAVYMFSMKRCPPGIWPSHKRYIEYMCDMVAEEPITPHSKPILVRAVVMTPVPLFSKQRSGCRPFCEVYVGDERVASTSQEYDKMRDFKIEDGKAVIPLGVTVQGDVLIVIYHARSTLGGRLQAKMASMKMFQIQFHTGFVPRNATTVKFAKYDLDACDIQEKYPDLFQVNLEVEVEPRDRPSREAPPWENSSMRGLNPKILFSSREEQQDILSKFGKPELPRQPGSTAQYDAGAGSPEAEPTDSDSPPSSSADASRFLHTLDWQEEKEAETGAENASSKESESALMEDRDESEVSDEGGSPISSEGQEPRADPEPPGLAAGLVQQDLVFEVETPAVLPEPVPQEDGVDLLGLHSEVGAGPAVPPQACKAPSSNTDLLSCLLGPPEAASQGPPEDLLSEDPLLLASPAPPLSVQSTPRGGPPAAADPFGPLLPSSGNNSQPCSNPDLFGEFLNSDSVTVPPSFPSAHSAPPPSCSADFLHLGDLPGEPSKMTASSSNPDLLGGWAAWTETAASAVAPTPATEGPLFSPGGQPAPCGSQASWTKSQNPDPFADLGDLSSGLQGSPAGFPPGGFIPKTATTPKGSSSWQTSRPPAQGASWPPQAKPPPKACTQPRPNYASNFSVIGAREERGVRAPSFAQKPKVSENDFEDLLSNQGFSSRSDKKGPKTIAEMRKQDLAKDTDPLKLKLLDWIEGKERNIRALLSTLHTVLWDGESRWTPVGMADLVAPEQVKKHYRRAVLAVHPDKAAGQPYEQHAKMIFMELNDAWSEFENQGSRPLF

Focal adhesion kinase 1 = Focal adhesion kinase 1 (Homo sapiens, UniProt Q05397); experiment: Selectivity interaction (KinomeScan (DiscoverX)) EUB0001619a PTK2; details: at 1 µM
Focal adhesion kinase 1, sequence (Q05397 2-1052 limits assumed): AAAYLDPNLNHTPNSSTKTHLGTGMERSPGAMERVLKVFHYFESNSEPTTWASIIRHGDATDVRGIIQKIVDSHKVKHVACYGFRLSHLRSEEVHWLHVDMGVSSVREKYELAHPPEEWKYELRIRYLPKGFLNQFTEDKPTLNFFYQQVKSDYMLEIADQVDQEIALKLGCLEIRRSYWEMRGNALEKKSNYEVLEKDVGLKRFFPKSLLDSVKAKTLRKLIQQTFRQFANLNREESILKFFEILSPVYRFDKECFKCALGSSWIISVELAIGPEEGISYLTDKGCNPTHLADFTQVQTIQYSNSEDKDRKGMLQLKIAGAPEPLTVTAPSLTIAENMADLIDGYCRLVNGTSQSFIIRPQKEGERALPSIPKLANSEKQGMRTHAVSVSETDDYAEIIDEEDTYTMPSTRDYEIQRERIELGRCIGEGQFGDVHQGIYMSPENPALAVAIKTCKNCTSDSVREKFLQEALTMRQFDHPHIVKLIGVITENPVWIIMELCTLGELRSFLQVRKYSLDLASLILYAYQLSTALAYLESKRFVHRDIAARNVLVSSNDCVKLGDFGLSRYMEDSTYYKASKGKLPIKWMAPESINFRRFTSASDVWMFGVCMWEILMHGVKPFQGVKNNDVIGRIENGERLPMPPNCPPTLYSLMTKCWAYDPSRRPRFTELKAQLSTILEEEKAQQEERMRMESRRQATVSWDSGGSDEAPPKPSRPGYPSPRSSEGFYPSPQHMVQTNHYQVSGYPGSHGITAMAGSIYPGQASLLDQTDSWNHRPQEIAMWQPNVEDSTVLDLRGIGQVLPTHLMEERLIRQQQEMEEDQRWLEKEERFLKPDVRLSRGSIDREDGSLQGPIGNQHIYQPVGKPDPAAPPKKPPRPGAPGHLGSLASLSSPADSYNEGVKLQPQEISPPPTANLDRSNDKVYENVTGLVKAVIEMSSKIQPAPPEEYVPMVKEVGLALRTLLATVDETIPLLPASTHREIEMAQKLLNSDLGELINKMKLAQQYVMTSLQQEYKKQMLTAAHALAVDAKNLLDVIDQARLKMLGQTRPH

Tyrosine-protein kinase FRK (Homo sapiens), sequence (P42685 whole entry): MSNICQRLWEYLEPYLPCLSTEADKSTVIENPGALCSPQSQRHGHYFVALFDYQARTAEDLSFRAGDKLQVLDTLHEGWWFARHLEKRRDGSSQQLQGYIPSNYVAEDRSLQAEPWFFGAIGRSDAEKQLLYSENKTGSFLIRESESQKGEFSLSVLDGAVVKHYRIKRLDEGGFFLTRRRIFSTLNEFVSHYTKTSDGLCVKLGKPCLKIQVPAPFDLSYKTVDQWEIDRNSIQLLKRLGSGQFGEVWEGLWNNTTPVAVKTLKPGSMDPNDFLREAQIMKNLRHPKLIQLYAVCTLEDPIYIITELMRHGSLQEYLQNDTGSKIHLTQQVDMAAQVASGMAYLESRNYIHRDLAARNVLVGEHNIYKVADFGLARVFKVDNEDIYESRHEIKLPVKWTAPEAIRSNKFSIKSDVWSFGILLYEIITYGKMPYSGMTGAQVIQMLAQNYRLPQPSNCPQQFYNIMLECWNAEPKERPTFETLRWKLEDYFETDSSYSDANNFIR
Ephrin type-A receptor 5 (Homo sapiens), sequence (P54756 whole entry): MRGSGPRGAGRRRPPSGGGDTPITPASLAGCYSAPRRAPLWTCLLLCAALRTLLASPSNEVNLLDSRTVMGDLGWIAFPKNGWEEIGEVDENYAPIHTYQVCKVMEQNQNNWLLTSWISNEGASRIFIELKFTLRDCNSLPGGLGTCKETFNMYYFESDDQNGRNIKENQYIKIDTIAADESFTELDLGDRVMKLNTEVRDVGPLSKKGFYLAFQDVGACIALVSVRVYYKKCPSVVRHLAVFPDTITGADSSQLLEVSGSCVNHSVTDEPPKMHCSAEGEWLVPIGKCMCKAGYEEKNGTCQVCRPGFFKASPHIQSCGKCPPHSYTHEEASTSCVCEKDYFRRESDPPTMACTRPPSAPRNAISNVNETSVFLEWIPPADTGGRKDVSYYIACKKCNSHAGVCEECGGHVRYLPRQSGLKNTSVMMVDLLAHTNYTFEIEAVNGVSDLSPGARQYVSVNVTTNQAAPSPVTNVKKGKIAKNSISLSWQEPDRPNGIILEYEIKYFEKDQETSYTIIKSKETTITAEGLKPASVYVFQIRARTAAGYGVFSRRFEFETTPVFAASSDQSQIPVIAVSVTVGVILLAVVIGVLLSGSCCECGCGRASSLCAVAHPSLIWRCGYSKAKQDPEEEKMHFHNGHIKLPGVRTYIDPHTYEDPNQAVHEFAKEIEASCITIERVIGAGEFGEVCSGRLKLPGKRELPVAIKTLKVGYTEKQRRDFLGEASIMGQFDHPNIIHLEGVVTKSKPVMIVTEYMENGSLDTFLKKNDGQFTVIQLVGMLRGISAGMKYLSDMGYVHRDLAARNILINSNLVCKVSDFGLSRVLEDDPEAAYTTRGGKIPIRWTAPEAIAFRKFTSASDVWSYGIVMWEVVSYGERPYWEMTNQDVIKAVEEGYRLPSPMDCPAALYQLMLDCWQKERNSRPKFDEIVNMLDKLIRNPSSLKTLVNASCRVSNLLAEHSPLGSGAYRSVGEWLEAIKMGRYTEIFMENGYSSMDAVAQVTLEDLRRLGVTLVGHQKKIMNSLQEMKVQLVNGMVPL

In the case of `CN(C)CCOc1ccc(-c2nc(-c3ccncc3)c(-c3ccc4c(c3)CC/C4=N\O)[nH]2)cc1`, the % of control [1] is reported as 99%.
For `Nc1cnc(N2CCc3cc(S(=O)(=O)Nc4c(F)cc(Cl)cc4F)cc(N4CCCC4=O)c32)nc1` [TP-020n], the % of control [2] was 62%.
Compound `Cc1cc(F)c(C(=O)Nc2cccc(-c3nncn3C(C)C)n2)cc1-n1cnc(C2CC2)c1` has a % of control [3] of 100% and a % of control [4] of 100%.
Work on `CN(C)C/C=C/C(=O)Nc1ccc(C(=O)N2CCCC(Nc3ncc(Cl)c(-c4c[nH]c5ccccc45)n3)C2)cc1` (stereo unspecified) yielded a % of control [5] of 93%.
`N#Cc1cccc(-c2c[nH]c3ncnc(N4CCOCC4)c23)c1` gave a % of control (Focal adhesion kinase 1) of 100%.
